Assay results from PubChem BioAssay AID1259407 (Chemical Carcinogenesis Research Information System (CCRIS), 2018).
Active and inactive are the calls of the source. No rule for the calls is given here.

Tested on: CCRIS mutagenicity, Ames/micronucleus/aberration tests
Test: CCRIS mutagenicity studies

Measured: mutagenic call

COc1ccc(N)c(OC)c1
active: Test System: AMES SALMONELLA TYPHIMURIUM, Strain/Indicator: TA98, Metabolic Activation: HAMSTER, LIVER, S-9, AROCLOR 1254 (30%), Method: PREINCUBATION active; positive | Test System: AMES SALMONELLA TYPHIMURIUM, Strain/Indicator: TA98, Metabolic Activation: RAT, LIVER, S-9, AROCLOR 1254 (30%), Method: PREINCUBATION active; positive | Test System: AMES SALMONELLA TYPHIMURIUM, Strain/Indicator: TA100, Metabolic Activation: HAMSTER, LIVER, S-9, AROCLOR 1254 (30%), Method: PREINCUBATION active; positive
inactive: Test System: AMES SALMONELLA TYPHIMURIUM, Strain/Indicator: TA98, Metabolic Activation: HAMSTER, LIVER, S-9, Method: STANDARD PLATE inactive; negative | Test System: AMES SALMONELLA TYPHIMURIUM, Strain/Indicator: TA98, Metabolic Activation: MOUSE, LIVER, S-9, AROCLOR 1254, Method: STANDARD PLATE inactive; negative | Test System: AMES SALMONELLA TYPHIMURIUM, Strain/Indicator: TA98, Metabolic Activation: MOUSE, LIVER, S-9, Method: STANDARD PLATE inactive; negative | Test System: AMES SALMONELLA TYPHIMURIUM, Strain/Indicator: TA98, Metabolic Activation: NONE, Method: PREINCUBATION inactive; negative | Test System: AMES SALMONELLA TYPHIMURIUM, Strain/Indicator: TA98, Metabolic Activation: NONE, Method: STANDARD PLATE inactive; negative | Test System: AMES SALMONELLA TYPHIMURIUM, Strain/Indicator: TA98, Metabolic Activation: RAT, LIVER, S-9, Method: STANDARD PLATE inactive; negative | Test System: AMES SALMONELLA TYPHIMURIUM, Strain/Indicator: TA100, Metabolic Activation: HAMSTER, LIVER, S-9, AROCLOR 1254, Method: STANDARD PLATE inactive; negative | Test System: AMES SALMONELLA TYPHIMURIUM, Strain/Indicator: TA100, Metabolic Activation: HAMSTER, LIVER, S-9, Method: STANDARD PLATE inactive; negative | Test System: AMES SALMONELLA TYPHIMURIUM, Strain/Indicator: TA100, Metabolic Activation: MOUSE, LIVER, S-9, AROCLOR 1254, Method: STANDARD PLATE inactive; negative | Test System: AMES SALMONELLA TYPHIMURIUM, Strain/Indicator: TA100, Metabolic Activation: MOUSE, LIVER, S-9, Method: STANDARD PLATE inactive; negative | Test System: AMES SALMONELLA TYPHIMURIUM, Strain/Indicator: TA100, Metabolic Activation: NONE, Method: PREINCUBATION inactive; negative | Test System: AMES SALMONELLA TYPHIMURIUM, Strain/Indicator: TA100, Metabolic Activation: NONE, Method: STANDARD PLATE inactive; negative | Test System: AMES SALMONELLA TYPHIMURIUM, Strain/Indicator: TA100, Metabolic Activation: RAT, LIVER, S-9, AROCLOR 1254 (30%), Method: PREINCUBATION inactive; negative | Test System: AMES SALMONELLA TYPHIMURIUM, Strain/Indicator: TA100, Metabolic Activation: RAT, LIVER, S-9, AROCLOR 1254, Method: STANDARD PLATE inactive; negative | Test System: AMES SALMONELLA TYPHIMURIUM, Strain/Indicator: TA100, Metabolic Activation: RAT, LIVER, S-9, Method: STANDARD PLATE inactive; negative | Test System: AMES SALMONELLA TYPHIMURIUM, Strain/Indicator: TA1535, Metabolic Activation: HAMSTER, LIVER, S-9, AROCLOR 1254, Method: STANDARD PLATE inactive; negative | Test System: AMES SALMONELLA TYPHIMURIUM, Strain/Indicator: TA1535, Metabolic Activation: HAMSTER, LIVER, S-9, Method: STANDARD PLATE inactive; negative | Test System: AMES SALMONELLA TYPHIMURIUM, Strain/Indicator: TA1535, Metabolic Activation: MOUSE, LIVER, S-9, AROCLOR 1254, Method: STANDARD PLATE inactive; negative | Test System: AMES SALMONELLA TYPHIMURIUM, Strain/Indicator: TA1535, Metabolic Activation: MOUSE, LIVER, S-9, Method: STANDARD PLATE inactive; negative | Test System: AMES SALMONELLA TYPHIMURIUM, Strain/Indicator: TA1535, Metabolic Activation: NONE, Method: STANDARD PLATE inactive; negative | Test System: AMES SALMONELLA TYPHIMURIUM, Strain/Indicator: TA1535, Metabolic Activation: RAT, LIVER, S-9, AROCLOR 1254, Method: STANDARD PLATE inactive; negative | Test System: AMES SALMONELLA TYPHIMURIUM, Strain/Indicator: TA1535, Metabolic Activation: RAT, LIVER, S-9, Method: STANDARD PLATE inactive; negative | Test System: AMES SALMONELLA TYPHIMURIUM, Strain/Indicator: TA1537, Metabolic Activation: HAMSTER, LIVER, S-9, Method: STANDARD PLATE inactive; negative | Test System: AMES SALMONELLA TYPHIMURIUM, Strain/Indicator: TA1537, Metabolic Activation: MOUSE, LIVER, S-9, AROCLOR 1254, Method: STANDARD PLATE inactive; negative | Test System: AMES SALMONELLA TYPHIMURIUM, Strain/Indicator: TA1537, Metabolic Activation: MOUSE, LIVER, S-9, Method: STANDARD PLATE inactive; negative | Test System: AMES SALMONELLA TYPHIMURIUM, Strain/Indicator: TA1537, Metabolic Activation: NONE, Method: STANDARD PLATE inactive; negative | Test System: AMES SALMONELLA TYPHIMURIUM, Strain/Indicator: TA1537, Metabolic Activation: RAT, LIVER, S-9, AROCLOR 1254, Method: STANDARD PLATE inactive; negative | Test System: AMES SALMONELLA TYPHIMURIUM, Strain/Indicator: TA1537, Metabolic Activation: RAT, LIVER, S-9, Method: STANDARD PLATE inactive; negative | Test System: AMES SALMONELLA TYPHIMURIUM, Strain/Indicator: TA1538, Metabolic Activation: MOUSE, LIVER, S-9, Method: STANDARD PLATE inactive; negative | Test System: AMES SALMONELLA TYPHIMURIUM, Strain/Indicator: TA1538, Metabolic Activation: NONE, Method: STANDARD PLATE inactive; negative | Test System: AMES SALMONELLA TYPHIMURIUM, Strain/Indicator: TA1538, Metabolic Activation: RAT, LIVER, S-9, Method: STANDARD PLATE inactive; negative | Test System: E. COLI, Strain/Indicator: WP2 UVRA, Metabolic Activation: HAMSTER, LIVER, S-9, AROCLOR 1254, Method: STANDARD PLATE inactive; negative | Test System: E. COLI, Strain/Indicator: WP2 UVRA, Metabolic Activation: HAMSTER, LIVER, S-9, Method: STANDARD PLATE inactive; negative | Test System: E. COLI, Strain/Indicator: WP2 UVRA, Metabolic Activation: MOUSE, LIVER, S-9, AROCLOR 1254, Method: STANDARD PLATE inactive; negative | Test System: E. COLI, Strain/Indicator: WP2 UVRA, Metabolic Activation: MOUSE, LIVER, S-9, Method: STANDARD PLATE inactive; negative | Test System: E. COLI, Strain/Indicator: WP2 UVRA, Metabolic Activation: NONE, Method: STANDARD PLATE inactive; negative | Test System: E. COLI, Strain/Indicator: WP2 UVRA, Metabolic Activation: RAT, LIVER, S-9, AROCLOR 1254, Method: STANDARD PLATE inactive; negative | Test System: E. COLI, Strain/Indicator: WP2 UVRA, Metabolic Activation: RAT, LIVER, S-9, Method: STANDARD PLATE inactive; negative

Cc1ccc(OC(=O)N(C)N=O)cc1C
active: Test System: E. COLI WP2, Strain/Indicator: WP2, Metabolic Activation: NONE, Method: STANDARD PLATE active; positive
